Patent US9932331B2, “Phenyl tetrahydroisoquinoline compound substituted with heteroaryl” (TAISHO PHARMACEUTICAL CO., LTD, priority 2014, dated 2018)
Structures can show the parent of a compound that is named as a salt.

Molecular target: T1, human NHE3 (Homo sapiens, UniProt P48764)
T1 sequence (P48764 26-834): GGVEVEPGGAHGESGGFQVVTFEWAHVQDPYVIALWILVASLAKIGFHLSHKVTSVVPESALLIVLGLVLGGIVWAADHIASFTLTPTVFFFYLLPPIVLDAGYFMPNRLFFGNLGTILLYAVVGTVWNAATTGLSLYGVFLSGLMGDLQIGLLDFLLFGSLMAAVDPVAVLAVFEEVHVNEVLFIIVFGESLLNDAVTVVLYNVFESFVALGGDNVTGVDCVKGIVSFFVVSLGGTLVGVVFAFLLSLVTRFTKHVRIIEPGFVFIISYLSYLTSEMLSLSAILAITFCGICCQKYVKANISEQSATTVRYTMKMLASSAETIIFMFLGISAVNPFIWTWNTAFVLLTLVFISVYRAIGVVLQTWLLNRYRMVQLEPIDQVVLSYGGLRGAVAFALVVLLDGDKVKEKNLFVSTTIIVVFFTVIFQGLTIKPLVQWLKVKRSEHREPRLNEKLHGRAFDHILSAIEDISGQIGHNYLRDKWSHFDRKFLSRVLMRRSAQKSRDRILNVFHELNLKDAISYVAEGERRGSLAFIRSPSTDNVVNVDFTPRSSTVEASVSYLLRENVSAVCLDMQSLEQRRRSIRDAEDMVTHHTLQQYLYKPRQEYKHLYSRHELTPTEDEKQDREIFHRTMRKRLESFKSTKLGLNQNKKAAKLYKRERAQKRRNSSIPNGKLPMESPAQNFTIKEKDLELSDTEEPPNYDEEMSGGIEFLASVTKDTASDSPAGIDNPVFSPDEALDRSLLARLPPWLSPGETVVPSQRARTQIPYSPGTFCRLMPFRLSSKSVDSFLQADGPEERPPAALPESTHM
Test: NHE3 inhibition test (recovery of intracellular pH in cell line stably expressing human NHE3)
Assay type: cell-based
Settings: OK cells deficient in endogenous NHE stably expressing human NHE3; BCECF fluorescence, initial rate of pH recovery; read-out: human NHE3 inhibitory activity IC50
Procedure: (1) Preparation of Cell Line Deficient in Endogenous NHE
The cell line deficient in endogenous NHE was prepared according to the method of Jacques Pouyssegur et al. (Proc. Natl. Acad. Sci. USA. 1984, Vol. 81, 4833-4837) using opossum kidney (OK) cells (ATCC).
(2) Preparation of Expression Plasmid and Cell Line Stably Expressing Human NHE3
The expression plasmid was constructed by inserting a human NHE3 (SLC9A3, Accession No. NM_004174) cDNA sequence (GeneCopoeia, Inc.) into a pcDNA3.2/V5-DEST vector (Life Technologies Corp.).
The OK cells deficient in endogenous NHE were transfected with the constructed human NHE3 expression plasmid to prepare stably expressing cells. The transfection was carried out by electroporation using a Nucleofector 2b device (Lonza Group Ltd.). A stably expressing cell line was selected in medium supplemented with 500 μg/mL Geneticin (Life Technologies Corp.) and isolated.
NHE3 activity measurement method using cell: The activity was determined by using the NHE3-mediated recovery of intracellular pH occurring after intracellular acidification, as an index. The intracellular pH was measured by a partial modification of the pH-sensitive fluorescent indicator method reported by Tsien et al. (Proc. Natl. Acad. Sci. USA., 1984, 81, 7436-7440).
The cell line stably expressing human NHE3 was inoculated on a poly-D-lysine-coated 96-well plate (Greiner Bio-one) and cultured overnight. […] Then, Hank's balanced salt buffer solution containing 0.25 μM BCECF-AM (Dojindo Laboratories) was added to the cells, which were then incubated at 37° C. for 30 minutes. […] The cells thus incubated in the NH4Cl buffer solution were washed with NH4Cl-free buffer solution (133.8 mM choline chloride, […], 5 mM glucose, 4.7 mM KCl, 1.25 mM CaCl2, 1.25 mM MgCl2, 0.97 mM K2HPO4, 0.23 mM KH2PO4, pH 7.4) to decrease the intracellular pH. After the washing step, 70 μL of a test compound solution prepared with the NH4Cl-free buffer solution was added to the cells, and 70 iμL of sodium ion-containing buffer solution (133.8 mM NaCl, 10 mM HEPES, 5 mM glucose, 4.7 mM KCl, 1.25 mM CaCl2, 1.25 mM MgCl2, 0.97 mM Na2HPO4, 0.23 mM NaH2PO4, pH 7.4) was added thereto in a measurement system FDSS6000 (Hamamatsu Photonics K.K.) to start the recovery of pH. The recovery of intracellular pH was monitored using BCECF fluorescence (excitation wavelength: 480 nm, fluorescence wavelength: 520 to 560 nm), and the initial rate of the pH recovery was plotted. The recovery of pH without test compound was defined as the maximum recovery, and the test compound concentration necessary to inhibit 50% of the maximum recovery was calculated as an IC50 value.

An IC50 of 12 nM was found for `CN1Cc2c(Cl)cc(Cl)cc2[C@H](c2cccc(-c3cnnc(NCCOCCOCCNC(=O)NCCCCNC(=O)NCCOCCOCCNc4cc(-c5cccc([C@@H]6CN(C)Cc7c(Cl)cc(Cl)cc76)c5)cnn4)c3)c2)C1` [Example 7-13, 1,1′-Butane-1,4-diylbis {3-[2-(2-(2-{2-[(5-{3-[(4S)-6,8-dichloro-2-methyl-1,2,3,4-tetrahydroisoquinolin-4-yl]phenyl}pyridazin-3-yl)amino]ethoxy}ethoxy)ethyl]urea}tetrahydrochloride] in this work.
An IC50 of 13.9 nM was found for `CN1Cc2c(Cl)cc(Cl)cc2[C@H](c2cccc(-c3cc(NCCOCCOCCNC(=O)Nc4ccc(NC(=O)NCCOCCOCCNc5cc(-c6cccc([C@@H]7CN(C)Cc8c(Cl)cc(Cl)cc87)c6)ncn5)cc4)ncn3)c2)C1` [Example 7-14, 1,1′-Benzene-1,4-diylbis {3-[2-(2-{2-[(6-{3-[(4S)-6,8-dichloro-2-methyl-1,2,3,4-tetrahydroisoquinolin-4-yl]phenyl}pyrimidin-4-yl)amino]ethoxy}ethoxy)ethyl]urea} trifluoroacetate] in this work.
An IC50 of 4.4 nM was found for `CN1Cc2c(Cl)cc(Cl)cc2[C@H](c2cccc(-c3ccc(NCCOCCOCCOCCNC(=O)NCCCCNC(=O)NCCOCCOCCOCCNc4ccc(-c5cccc([C@@H]6CN(C)Cc7c(Cl)cc(Cl)cc76)c5)cn4)nc3)c2)C1` [Example 7-17, 1,1′-Butane-1,4-diylbis(3-{2-[2-(2-{2-[(5-{3-[(4S)-6,8-dichloro-2-methyl-1,2,3,4-tetrahydroisoquinolin-4-yl]phenyl}pyridin-2-yl)amino]ethoxy}ethoxy)ethoxy]ethyl}urea) hydrochloride] in this work.
An IC50 of 7.5 nM was found for `CN1Cc2c(Cl)cc(Cl)cc2[C@H](c2cccc(-c3cncc(NCCOCCOCCNC(=O)NCCCCNC(=O)NCCOCCOCCNc4cncc(-c5cccc([C@@H]6CN(C)Cc7c(Cl)cc(Cl)cc76)c5)n4)n3)c2)C1` [Example 7-20, 1,1′-Butane-1,4-diylbis{3-[2-(2-{2-[(6-{3-[(4S)-6,8-dichloro-2-methyl-1,2,3,4-tetrahydroisoquinolin-4-yl]phenyl}pyrazin-2-yl)amino]ethoxy}ethoxy)ethyl]urea}pentahydrochloride] in this work.
An IC50 of 3.8 nM was found for `CN1Cc2c(Cl)cc(Cl)cc2[C@H](c2cccc(-c3nnc(CCOCCOCCNC(=O)NCCCCNC(=O)NCCOCCOCCc4nnc(-c5cccc([C@@H]6CN(C)Cc7c(Cl)cc(Cl)cc76)c5)[nH]4)[nH]3)c2)C1` [Example 7-21, 1,1′-Butane-1,4-diylbis[3-(2-{2-[2-(5-{3-[(4S)-6,8-dichloro-2-methyl-1,2,3,4-tetrahydroisoquinolin-4-yl]phenyl}-4H-1,2,4-triazol-3-yl)ethoxy]ethoxy}ethyl)urea]diformate] in this work.
An IC50 of 5.7 nM was found for `CN1Cc2c(Cl)cc(Cl)cc2[C@H](c2cccc(-c3nnc(CCOCCOCCOCCNC(=O)NCCCCNC(=O)NCCOCCOCCOCCc4nnc(-c5cccc([C@@H]6CN(C)Cc7c(Cl)cc(Cl)cc76)c5)[nH]4)[nH]3)c2)C1` [Example 7-22, 1,1′-Butane-1,4-diylbis {3-[2-(2-{2-[2-(5-{3-[(4S)-6,8-dichloro-2-methyl-1,2,3,4-tetrahydroisoquinolin-4-yl]phenyl}-4H-1,2,4-triazol-3-yl)ethoxy]ethoxy}ethoxy)ethyl]urea} diformate] in this work.
An IC50 of 5.5 nM was found for `CN1Cc2c(Cl)cc(Cl)cc2[C@H](c2cccc(-c3nnc(CCOCCOCCNC(=O)NCCCCNC(=O)NCCOCCOCCc4nnc(-c5cccc([C@@H]6CN(C)Cc7c(Cl)cc(Cl)cc76)c5)o4)o3)c2)C1` [Example 7-23, 1,1′-Butane-1,4-diylbis[3-(2-{2-[2-(5-{3-[(4S)-6,8-dichloro-2-methyl-1,2,3,4-tetrahydroisoquinolin-4-yl]phenyl}-1,3,4-oxadiazol-2-yl)ethoxy]ethoxy}ethyl)urea]tetraformate] in this work.
An IC50 of 13.6 nM was found for `CN1Cc2c(Cl)cc(Cl)cc2[C@H](c2cccc(-c3cc(OCCOCCOCCOCCNC(=O)Nc4ccc(NC(=O)NCCOCCOCCOCCOc5cc(-c6cccc([C@@H]7CN(C)Cc8c(Cl)cc(Cl)cc87)c6)ncn5)cc4)ncn3)c2)C1` [Example 7-25, 1,1′-Benzene-1,4-diylbis(3-{2-[2-(2-{2-[(6-{3-[(4S)-6,8-dichloro-2-methyl-1,2,3,4-tetrahydroisoquinolin-4-yl]phenyl}pyrimidin-4-yl)oxy]ethoxy}ethoxy)ethoxy]ethyl}urea) hydrochloride] in this work.
An IC50 of 5.2 nM was found for `CN1Cc2c(Cl)cc(Cl)cc2[C@H](c2cccc(-c3cn(CCOCCOCCOCCNC(=O)NCCOCCOCCNC(=O)NCCOCCOCCOCCn4cc(-c5cccc([C@@H]6CN(C)Cc7c(Cl)cc(Cl)cc76)c5)nn4)nn3)c2)C1` [Example 7-26, 1,1′-[Ethane-1,2-diylbis(oxyethane-2,1-diyl)]bis {3-[2-(2-{2-[2-(4-{3-[(4S)-6,8-dichloro-2-methyl-1,2,3,4-tetrahydroisoquinolin-4-yl]phenyl}-1H-1,2,3-triazol-1-yl)ethoxy]ethoxy}ethoxy)ethyl]urea}hydrochloride] in this work.
An IC50 of 11.3 nM was found for `CN1Cc2c(Cl)cc(Cl)cc2[C@H](c2cccc(-c3cn(CCOCCOCCOCCNC(=O)NCCCCCCNC(=O)NCCOCCOCCOCCn4cc(-c5cccc([C@@H]6CN(C)Cc7c(Cl)cc(Cl)cc76)c5)nn4)nn3)c2)C1` [Example 7-27, 1,1′-Hexane-1,6-diylbis {3-[2-(2-{2-[2-(4-{3-[(4S)-6,8-dichloro-2-methyl-1,2,3,4-tetrahydroisoquinolin-4-yl]phenyl}-1H-1,2,3-triazol-1-yl)ethoxy]ethoxy}ethoxy)ethyl]urea}hydrochloride] in this work.
An IC50 of 7.3 nM was found for `CN1Cc2c(Cl)cc(Cl)cc2[C@H](c2cccc(-c3cn(CCOCCOCCOCCNC(=O)NCCCCCCCCNC(=O)NCCOCCOCCOCCn4cc(-c5cccc([C@@H]6CN(C)Cc7c(Cl)cc(Cl)cc76)c5)nn4)nn3)c2)C1` [Example 7-28, 1,1′-Octane-1,8-diylbis {3-[2-(2-{2-[2-(4-{3-[(4S)-6,8-dichloro-2-methyl-1,2,3,4-tetrahydroisoquinolin-4-yl]phenyl}-1H-1,2,3-triazol-1-yl)ethoxy]ethoxy}ethoxy)ethyl]urea}hydrochloride] in this work.
An IC50 of 12.4 nM was found for `CN1Cc2c(Cl)cc(Cl)cc2[C@H](c2cccc(-c3cc(OCCOCCOCCOCCNC(=O)NCCCCNC(=O)NCCOCCOCCOCCOc4cc(-c5cccc([C@@H]6CN(C)Cc7c(Cl)cc(Cl)cc76)c5)ncn4)ncn3)c2)C1` [Example 7-31, 1,1′-Butane-1,4-diylbis(3-{2-[2-(2-{2-[(6-{3-[(4S)-6,8-dichloro-2-methyl-1,2,3,4-tetrahydroisoquinolin-4-yl]phenyl}pyrimidin-4-yl)oxy]ethoxy}ethoxy)ethoxy]ethyl}urea) hydrochloride] in this work.
An IC50 of 18.1 nM was found for `CN1Cc2c(Cl)cc(Cl)cc2[C@H](c2cccc(-c3cnnc(NCCOCCOCCOCCNC(=O)NCCCCNC(=O)NCCOCCOCCOCCNc4cc(-c5cccc([C@@H]6CN(C)Cc7c(Cl)cc(Cl)cc76)c5)cnn4)c3)c2)C1` [Example 7-32, 1,1′-Butane-1,4-diylbis(3-{2-[2-(2-{2-[(5-{3-[(4S)-6,8-dichloro-2-methyl-1,2,3,4-tetrahydroisoquinolin-4-yl]phenyl}pyridazin-3-yl)amino]ethoxy}ethoxy)ethoxy]ethyl}urea) tetrahydrochloride] in this work.
